Source: PMC5532363, “Synergistic blending of high-valued heterocycles inhibits growth of Plasmodium falciparum in culture and P. berghei infection in mouse model” (Scientific Reports, 2017)

Tests used:
P. falciparum 3D7 = assay: Fixed-ratio isobologram drug interaction assay with CQ/DHA, 3D7; format: cell-based, Plasmodium falciparum; settings: Pf3D7
Protocol: (§1) A modified fixed-ratio isobologram method was used to assess interaction between CQ/DHA and Pht analogues. Briefly, a total of 5 solutions containing fixed-ratio mixtures of Pht derivatives with either CQ or DHA were prepared in the following ratios: 1:1, 2:1, 3:2, 2:3, and 1:4. The starting concentrations for ten 2 fold-serial dilutions across the microtiter plate were assigned so that the IC50 of each drug would be in the 5th serial dilution of the plate. Each drug was tested alone and at fixed ratios of its IC50. The assessment of drug interaction was based on the calculation of the fractional inhibitory concentration (FIC) of two drugs in the […]. FIC was calculated for each association by dividing the IC50 of the drug in the combination by the IC50 of the drug alone.

P. falciparum W2 = assay: Fixed-ratio isobologram drug interaction assay with CQ/DHA, W2; format: cell-based, Plasmodium falciparum; settings: PfW2
Protocol: as §1

P. berghei NK65 = assay: Modified Peter's 4-day suppressive test in P. berghei NK65 infected Swiss albino mice; format: in vivo, Plasmodium berghei; settings: for effect on parasite load / effect on survival: 50 mg/kg s.c. for four consecutive days (artemisinin 5 mg/kg in combination), vs untreated; for median survival time (MST): 6h/6u 50 mg/kg, artemisinin 5 mg/kg, s.c. for four consecutive days, n = 6/group
Protocol: The antimalarial effect of two active analogues, 6h and 6u (administered at 50 mg/kg of body weight), was determined in mice infected with P. berghei NK65, a strain, which results in high levels of blood-stage parasitemia. […] However, the 6u analogue had better antimalarial efficacy than the 6h analogue (Fig. 6A). As such, we then evaluated the efficacy of 6u (50 mg/kg) in combination with artemisinin (5 mg/kg of body weight) at reduced dosage in the murine malaria model. […] The median survival times of animals treated with Pht 6u alone, as well in combination with ART were 23 and 27.5 days, respectively (P<0.001).
Figure 6 Antimalarial effect of Pht analogs (6h and 6u) alone and in combination with Artemisinin (6u and ART) on parasitemia and survival in mice infected with P. berghei NK65. Mice were injected with 1 × 10^7 P. berghei infected RBCs. After 48 hours mice were treated with control (PBS: untreated), 6h and 6u (alone), and 6u in combination with artemisinin (all injected subcutaneously) for four consecutive days. The % of parasitemia was determined for the groups on days 5, 8 and 15 by randomly selecting 10 different optical fields on blood smears. (A) Administration of 6h and 6u (alone), and 6 u in combination with ART. Data are the mean ± SEM from six animals per treatment group. (B) Survival in the treatment groups (n = 6/group). (C) Photomicrograph of blood smears of untreated versus treatment groups at day 15 post infection (100x magnification). ART, Artemisinin; *P < 0.05. TEXT PRINTED IN THE PICTURE: (B) Phthalimide 6h: MST- 19.5 | (B) Phthalimide 6u: MST- 23 | (B) Artemisinin: MST- 21.5 | (B) Phthalimide 6u+Artemisinin: MST- 27.5
All animal experiments were performed in female Swiss albino mice (4 to 5 weeks old, weighing 25 to 30 g). The animals were housed under standard controlled conditions at 25 °C with a 12-h light-dark cycle and access to sterilized food pellets and water. All experiments were carried out in accordance with the standard procedures approved by the Animal Ethics Committee of the University of Delhi South Campus, under the Control and Supervision of Experiments on Animals (CPCSEA), Ministry of Social Justice and Empowerment, Government of India. […] The antimalarial activity was carried out in accordance with a slightly modified version of the Peter’s 4-day suppressive test[43]. The animals were assigned to each group (n = 6). Subsequently, after 48 hour of postinfection, the parasitemia level reached 1 to 2%, and all the groups of mice were treated by subcutaneous (s.c.) injection with compounds 6h and 6u alone as well in combination with artemisinin solubilized in DMSO. One group was kept as a control and treated with physiological saline. The efficacy of the treatment was monitored by measuring the parasitemia and survival on days 5, 8 and 15 posttreatments by obtaining thin smears of blood withdrawn from the tail vein of infected mice and staining with 10% Giemsa. The level of parasitemia was determined by counting infected and noninfected erythrocytes from 10 to 15 randomly selected optical fields at 100x magnification and expressed as the number of infected erythrocytes per 100 erythrocytes. The survival of mice was recorded and observed for external symptoms, such as change in body weight, ruffled fur, lethargy and paralysis, until 30 or 40 days posttreatment. The reduction in the level of parasitemia was taken as the index for the curative activities of the drugs. The percentage of parasitemia was calculated manually with the Cell Counting Aid software[44] using the formula (total no. of parasitized RBCs)/(total no. of RBCs) × 100.
For in-vivo experiments, statistical differences between two groups were determined by Student’s t test and between multiple groups using one-way analysis of variance (ANOVA), with P values of <0.05, by GraphPad Prism (version 5.01; GraphPad Software, Inc., CA). […]

[1] = MTT cytotoxicity assay in U937 cells; format: cell-based; settings: human; for selectivity ratio at 24 h: U937 cells (CC50) versus 3D7 parasites (IC50), read-out: selectivity index (SI); for CC50 at 24 h: U937 cells, MTT
Protocol: As a final step in the investigational pipeline, we determined the cytotoxic effect of the four active analogues (6a, 6h, 6m and 6u) in U937 cell lines by measuring 50% cytotoxic concentrations (CC50) and calculating selectivity indices (SIs) as a measure of toxicity in human cells.
Cytotoxicity of the 4 select Pht compounds on human cells was evaluated by assessing cell viability of the U937, a human acute monocyte leukemia cell lines by use of the MTT assay. U937 was acquired from American Type Culture Collection (ATCC, Rockville, MD) and maintained in RPMI 1640 medium supplemented with 10% fetal bovine serum, and Penicillin-streptomycin (1% v/v) (Gibco, UK) at 37 °C. Robust U937 cells at a concentration of 80,000 cells/ml were plated into 96-well plates and incubated for 24 hours. Six concentrations of the Pht compounds were added in a two-fold dilution from starting concentration of 50 to 1.56 µM in triplicate and incubated with the cells for 24 hours. This was followed by addition of 10 µL MTT solution (5 mg/mL) into each well, incubated for 4 hour at 37 °C followed by addition of 50 µL DMSO to dissolve the formazan precipitate according to manufacturer’s protocol. Aliquots were drawn from each well and color intensity was measured spectrophotometrically in an ELISA plate reader (Biotek, ELx800) at 540 nm. The cell viability ratio was calculated by the following formula: % cytotoxicity = [Mean OD of test cells] − [Mean OD of control cells]/[Mean OD of control cells] × 100. Viability counts were then plotted against corresponding drug concentrations to yield cytotoxicity (CC50) through non-linear regression (sigmoid dose-response/variable slope equation). Drug CC50 values were then used to define selectivity indices, which is a measure of drug safety in human relative to parasitic cells and was calculated as the ratio of the CC50 value determined on the U937 cells (cytotoxicity) and the IC50 value determined on parasite growth inhibition 3D7 (anti-plasmodial activity). In this study, we set SI > 2 as cut-off as an indicative of low drug cytotoxicity.

SMILES	interaction when combined with CQ and DHA (P. falciparum 3D7)	interaction when combined with CQ and DHA (P. falciparum W2)	effect on parasite load (P. berghei NK65)	effect on survival (P. berghei NK65)	median survival time (MST) (P. berghei NK65) [days]	selectivity ratio at 24 h [1]	CC50 at 24 h [1] [µM]
CC(C)C[C@H](c1nc2ccccc2n1Cc1c[nH]nn1)N1C(=O)c2ccccc2C1=O [Compound 6u]	synergistic activity	synergistic activity	suppression of the parasite load	improved survival	23	2.31 ± 0.76	2.08 ± 1.6
CC[C@@H](C)[C@H](c1nc2ccccc2n1Cc1cn(-c2ccc(F)cc2)nn1)N1C(=O)c2ccccc2C1=O [Compound 6h]	synergistic activity	synergistic activity	suppression of the parasite load	improved survival	19.5	41.2 ± 1.7	28.8 ± 0.67
